Experimental data taken from patent US8173631B2, “Cyclic amine compounds” (Daiichi Sankyo Company, Limited, priority 2008, dated 2012).
Values belong to the compound of their own block, whether it stands above or below them.

Legend:
[1] = target: T1, human calcium-sensing receptor (CaSR) (Homo sapiens, UniProt P41180); experiment: Inhibitory activity on calcium-sensing receptor (CaSR), intracellular calcium increase as indicator (FLIPR, CHO/hCaSR); type: cell-based; conditions: CHO cells stably expressing human CaSR; inhibition of intracellular Ca increase induced by extracellular CaCl2
T1 construct: expressed in transfected cells
T1 sequence (P41180 20-1078): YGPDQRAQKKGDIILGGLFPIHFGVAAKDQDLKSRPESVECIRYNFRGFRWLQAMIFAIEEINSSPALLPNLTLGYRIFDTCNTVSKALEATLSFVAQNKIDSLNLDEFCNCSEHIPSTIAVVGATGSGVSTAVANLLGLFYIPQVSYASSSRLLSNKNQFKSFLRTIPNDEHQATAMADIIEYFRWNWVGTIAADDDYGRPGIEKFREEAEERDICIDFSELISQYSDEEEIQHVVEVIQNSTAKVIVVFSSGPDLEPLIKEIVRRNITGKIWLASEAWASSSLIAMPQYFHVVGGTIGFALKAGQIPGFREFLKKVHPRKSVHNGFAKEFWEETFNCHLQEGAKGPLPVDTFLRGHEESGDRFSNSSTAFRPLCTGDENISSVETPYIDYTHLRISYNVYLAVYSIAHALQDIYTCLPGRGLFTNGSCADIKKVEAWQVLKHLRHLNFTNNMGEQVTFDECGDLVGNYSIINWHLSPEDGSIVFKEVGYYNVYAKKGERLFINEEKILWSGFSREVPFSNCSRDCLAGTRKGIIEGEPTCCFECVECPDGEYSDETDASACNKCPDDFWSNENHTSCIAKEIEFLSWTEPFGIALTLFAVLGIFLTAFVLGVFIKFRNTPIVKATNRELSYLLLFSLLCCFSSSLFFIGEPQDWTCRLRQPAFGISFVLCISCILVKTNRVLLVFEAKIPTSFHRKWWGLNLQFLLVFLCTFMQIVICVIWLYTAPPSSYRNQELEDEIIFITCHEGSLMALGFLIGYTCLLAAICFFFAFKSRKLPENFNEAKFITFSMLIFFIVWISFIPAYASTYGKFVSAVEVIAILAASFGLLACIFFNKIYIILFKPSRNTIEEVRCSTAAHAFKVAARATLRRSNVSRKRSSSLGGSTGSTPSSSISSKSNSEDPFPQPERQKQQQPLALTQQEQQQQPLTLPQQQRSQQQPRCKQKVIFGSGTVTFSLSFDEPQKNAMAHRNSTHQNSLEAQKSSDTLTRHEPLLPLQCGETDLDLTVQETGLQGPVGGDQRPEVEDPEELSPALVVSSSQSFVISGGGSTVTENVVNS
Method in brief: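 CHO/hCaSR cells loaded with Calcium 3 dye in HEPES/HBSS (Ca/Mg-free, 2.5 mM probenecid, pH 7.4), then preincubated 15 min with compound (final 1.05–10,000 nM). Challenged with CaCl2 ([…]) and fluorescence followed by FLIPR. IC50 derived from the peak-minus-baseline fluorescence increase.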

PTH secretion = experiment: Evaluation of PTH secretion promoting activity in a rat (blood serum PTH after oral administration); type: in vivo; conditions: female F344 rat, oral 3 mg/5 mL/kg, Mean ± S.D., n = 3
Experimental: Evaluation of PTH Secretion Promoting Activity in a Rat
A 10 to 14-week old female F344 rat (Charles River Japan, Inc.) fasted overnight was anesthetized using ether, and blood serum before the administration was prepared by drawing blood from the jugular vein of the animal. Subsequently, the test compound was orally administered at a dose of 3 mg/5 mL/kg using a solvent (0.5% aqueous methyl cellulose solution containing 5% DMA). Blood was drawn from the jugular vein under ether anesthesia at 5, 15, 30, 60, 120, and 240 minutes after the administration of the test compound, and the blood serum was prepared. The blood serum PTH concentration was measured using rat Intact PTH ELISA kit (manufactured by Immutopics, Inc.).

IC50 [1]: ≤ 3.13 µM
Structure (SMILES): Cc1ccc(C[C@@H]2CCCN2C[C@@H](O)CO[C@H](C)c2cccc(C(F)(F)F)c2CCC(=O)O)cc1F [Example 9, 3-{2-[(1R)-1-({(2R)-3-[(2S)-2-(3-Fluoro-4-methylbenzyl)pyrrolidin-1-yl]-2-hydroxypropyl}oxy)ethyl]-6-(trifluoromethyl)phenyl}propanoic acid]
Blood Serum PTH (1-84) Concentration, 0 minute (PTH secretion): 87.9 ± 25.5 pg/mL
Blood Serum PTH (1-84) Concentration, After 5 minutes (PTH secretion): 117.2 ± 32.4 pg/mL
Blood Serum PTH (1-84) Concentration, After 15 minutes (PTH secretion): 476.5 ± 99.7 pg/mL
Blood Serum PTH (1-84) Concentration, After 30 minutes (PTH secretion): 235.6 ± 99.1 pg/mL
Blood Serum PTH (1-84) Concentration, After 60 minutes (PTH secretion): 49.1 ± 16.9 pg/mL
Blood Serum PTH (1-84) Concentration, After 120 minutes (PTH secretion): 33.6 ± 5.1 pg/mL
Blood Serum PTH (1-84) Concentration, After 240 minutes (PTH secretion): 117.2 ± 27.7 pg/mL

IC50 [1]: ≤ 3.72 µM
Structure (SMILES): Cc1ccc(C[C@@H]2CCN2C[C@@H](O)CO[C@H](C)c2ccccc2CCC(=O)O)cc1F [Example 14, 3-{2-[(1R)-1-({(2R)-3-[(2R)-2-(3-Fluoro-4-methylbenzyl)azetidin-1-yl]-2-hydroxypropyl}oxy)ethyl]phenyl}propanoic acid]
Blood Serum PTH (1-84) Concentration, 0 minute (PTH secretion): 53.3 ± 4.4 pg/mL
Blood Serum PTH (1-84) Concentration, After 5 minutes (PTH secretion): 195.9 ± 16.9 pg/mL
Blood Serum PTH (1-84) Concentration, After 15 minutes (PTH secretion): 429.0 ± 111.0 pg/mL
Blood Serum PTH (1-84) Concentration, After 30 minutes (PTH secretion): 198.2 ± 61.0 pg/mL
Blood Serum PTH (1-84) Concentration, After 60 minutes (PTH secretion): 41.8 ± 5.8 pg/mL
Blood Serum PTH (1-84) Concentration, After 120 minutes (PTH secretion): 42.0 ± 8.5 pg/mL
Blood Serum PTH (1-84) Concentration, After 240 minutes (PTH secretion): 64.2 ± 6.3 pg/mL

IC50 [1]: ≤ 3.15 µM
Structure (SMILES): CC[C@@H](OC[C@H](O)CN1CCC[C@H]1Cc1ccc(Cl)c(F)c1)c1cccc(OC)c1CCC(=O)O [Example 173]

IC50 [1]: ≤ 3.25 µM
Structure (SMILES): Cc1cc(CCC(=O)O)c([C@@H](C)OC[C@H](O)CN2CCC[C@H]2Cc2ccc(C)c(Cl)c2)cc1F [Example 174]

IC50 [1]: ≤ 3.12 µM
Structure (SMILES): Cc1cc(CCC(=O)O)c([C@@H](C)OC[C@H](O)CN2CCC[C@H]2Cc2ccc(Cl)c(Cl)c2)cc1F [Example 175]

IC50 [1]: ≤ 3.23 µM
Structure (SMILES): Cc1ccc(C[C@@H]2CCCN2C[C@@H](O)CO[C@H](C)c2cc(F)c(F)cc2CCC(=O)O)cc1Cl [Example 176]

IC50 [1]: ≤ 3.1 µM
Structure (SMILES): C[C@@H](OC[C@H](O)CN1CCC[C@H]1Cc1ccc(Cl)c(Cl)c1)c1cc(F)c(F)cc1CCC(=O)O [Example 177]

IC50 [1]: ≤ 3.12 µM
Structure (SMILES): Cc1ccc(C[C@@H]2CCCN2C[C@@H](O)CO[C@H](C)c2ccccc2CCc2nn[nH]n2)cc1F [Example 178, (2R)-1-[(2S)-2-(3-Fluoro-4-methylbenzyl)pyrrolidin-1-yl]-3-[(1R)-1-{2-[2-(2H-tetrazol-5-yl)ethyl]phenyl}ethoxy]propan-2-ol]
